Experimental findings from US10870647B2, “Imidazopyridine derivative, method for preparing same, and pharmaceutical composition containing same as active ingredient for preventing or treating cancer” (DAEGU-GYEONGBUK MEDICAL INNOVATION FOUNDATION, priority 2016, dated 2020) are described below.

Experiment in all cases: Kinase selectivity, scanMAX Kinase assay panel (DiscoverX), % control at 1 uM
Common to all, as to type: binding

Test [1] deals with T1, scanMAX Kinase assay panel (Homo sapiens, UniProt O00750).
T1 construct: purchased DiscoverX
As to conditions: PIK3C2B; 1 uM; read-out: Percent Control (%). A digest of the protocol:
(§1)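 Single-point screen at 1 uM compound in DMSO. Lower % control means stronger inhibition, with the cutoff for activity set at <35%.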

In test [2] the target is T2, scanMAX Kinase assay panel (Homo sapiens, UniProt P10721, V559D).
T2 construct: purchased DiscoverX
As to conditions: KIT (V559D); 1 uM; read-out: Percent Control (%). The method in brief: as §1

The target in test [3] is T3, scanMAX Kinase assay panel (Homo sapiens, UniProt P16591).
T3 construct: purchased DiscoverX
As to conditions: FER; 1 uM; read-out: Percent Control (%). A digest of the protocol: as §1

In test [4] the target is T4, scanMAX Kinase assay panel (Homo sapiens, UniProt P23458).
T4 construct: purchased DiscoverX
As to conditions: 1 uM, read-out: Percent Control (%). The method in brief:
as §1

The target in test [5] is T5, scanMAX Kinase assay panel (Homo sapiens, UniProt P49137).
T5 construct: purchased DiscoverX
As to conditions: MAPKAPK2; 1 uM; read-out: Percent Control (%). A digest of the protocol: as §1

In test [6] the target is T6, scanMAX Kinase assay panel (Homo sapiens, UniProt P51955).
T6 construct: purchased DiscoverX
T6 sequence (P51955 1-445): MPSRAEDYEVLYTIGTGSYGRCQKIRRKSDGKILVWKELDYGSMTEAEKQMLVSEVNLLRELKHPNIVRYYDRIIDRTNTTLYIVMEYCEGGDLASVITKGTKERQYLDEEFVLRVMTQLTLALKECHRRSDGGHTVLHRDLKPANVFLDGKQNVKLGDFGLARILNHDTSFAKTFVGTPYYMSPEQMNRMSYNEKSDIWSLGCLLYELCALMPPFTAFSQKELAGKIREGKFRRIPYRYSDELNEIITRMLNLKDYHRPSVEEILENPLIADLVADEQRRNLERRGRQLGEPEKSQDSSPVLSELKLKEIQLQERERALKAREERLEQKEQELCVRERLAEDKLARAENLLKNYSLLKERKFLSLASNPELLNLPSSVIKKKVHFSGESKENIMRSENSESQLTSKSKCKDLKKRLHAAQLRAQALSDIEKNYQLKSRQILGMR
As to conditions: NEK2; 1 uM; read-out: Percent Control (%). The method in brief:
as §1

Test [7] has as its target T7, scanMAX Kinase assay panel (Homo sapiens, UniProt Q13131).
T7 construct: purchased DiscoverX
As to conditions: AMPK-alpha1; 1 uM; read-out: Percent Control (%). A digest of the protocol:
as §1

For test [8], the target named is T8, scanMAX Kinase assay panel (Homo sapiens, UniProt Q15139).
T8 construct: purchased DiscoverX
T8 sequence (Q15139 1-912): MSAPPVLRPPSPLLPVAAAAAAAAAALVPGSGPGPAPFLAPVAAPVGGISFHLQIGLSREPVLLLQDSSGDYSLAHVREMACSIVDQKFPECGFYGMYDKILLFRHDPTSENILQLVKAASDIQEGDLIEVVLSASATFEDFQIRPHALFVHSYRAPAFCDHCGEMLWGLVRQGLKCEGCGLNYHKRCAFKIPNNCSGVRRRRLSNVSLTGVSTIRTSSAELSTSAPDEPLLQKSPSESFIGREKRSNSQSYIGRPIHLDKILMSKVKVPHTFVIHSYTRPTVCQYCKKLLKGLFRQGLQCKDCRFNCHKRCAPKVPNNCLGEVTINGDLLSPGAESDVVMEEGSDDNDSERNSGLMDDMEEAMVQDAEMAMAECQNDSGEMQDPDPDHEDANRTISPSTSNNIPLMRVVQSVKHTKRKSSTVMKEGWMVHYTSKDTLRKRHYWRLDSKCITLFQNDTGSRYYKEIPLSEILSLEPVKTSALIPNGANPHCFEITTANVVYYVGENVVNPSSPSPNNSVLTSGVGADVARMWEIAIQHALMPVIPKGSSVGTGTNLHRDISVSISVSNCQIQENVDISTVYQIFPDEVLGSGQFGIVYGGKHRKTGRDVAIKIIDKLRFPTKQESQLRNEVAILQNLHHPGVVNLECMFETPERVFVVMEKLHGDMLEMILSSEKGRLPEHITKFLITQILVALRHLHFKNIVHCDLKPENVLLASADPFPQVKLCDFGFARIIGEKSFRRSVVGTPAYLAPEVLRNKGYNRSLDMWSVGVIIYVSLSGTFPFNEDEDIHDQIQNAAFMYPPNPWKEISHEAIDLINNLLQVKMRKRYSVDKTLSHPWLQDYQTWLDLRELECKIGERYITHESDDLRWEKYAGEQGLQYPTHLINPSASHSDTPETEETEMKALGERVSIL
As to conditions: PRKD1; 1 uM; read-out: Percent Control (%). The method in brief: as §1

Test [9] addresses T9, scanMAX Kinase assay panel (Homo sapiens, UniProt Q86V86).
T9 construct: purchased DiscoverX
As to conditions: PIM3; 1 uM; read-out: Percent Control (%). The method in brief:
as §1

In test [10] the target is T10, scanMAX Kinase assay panel (Homo sapiens, UniProt Q86Z02).
T10 construct: purchased DiscoverX
T10 sequence (Q86Z02 whole entry): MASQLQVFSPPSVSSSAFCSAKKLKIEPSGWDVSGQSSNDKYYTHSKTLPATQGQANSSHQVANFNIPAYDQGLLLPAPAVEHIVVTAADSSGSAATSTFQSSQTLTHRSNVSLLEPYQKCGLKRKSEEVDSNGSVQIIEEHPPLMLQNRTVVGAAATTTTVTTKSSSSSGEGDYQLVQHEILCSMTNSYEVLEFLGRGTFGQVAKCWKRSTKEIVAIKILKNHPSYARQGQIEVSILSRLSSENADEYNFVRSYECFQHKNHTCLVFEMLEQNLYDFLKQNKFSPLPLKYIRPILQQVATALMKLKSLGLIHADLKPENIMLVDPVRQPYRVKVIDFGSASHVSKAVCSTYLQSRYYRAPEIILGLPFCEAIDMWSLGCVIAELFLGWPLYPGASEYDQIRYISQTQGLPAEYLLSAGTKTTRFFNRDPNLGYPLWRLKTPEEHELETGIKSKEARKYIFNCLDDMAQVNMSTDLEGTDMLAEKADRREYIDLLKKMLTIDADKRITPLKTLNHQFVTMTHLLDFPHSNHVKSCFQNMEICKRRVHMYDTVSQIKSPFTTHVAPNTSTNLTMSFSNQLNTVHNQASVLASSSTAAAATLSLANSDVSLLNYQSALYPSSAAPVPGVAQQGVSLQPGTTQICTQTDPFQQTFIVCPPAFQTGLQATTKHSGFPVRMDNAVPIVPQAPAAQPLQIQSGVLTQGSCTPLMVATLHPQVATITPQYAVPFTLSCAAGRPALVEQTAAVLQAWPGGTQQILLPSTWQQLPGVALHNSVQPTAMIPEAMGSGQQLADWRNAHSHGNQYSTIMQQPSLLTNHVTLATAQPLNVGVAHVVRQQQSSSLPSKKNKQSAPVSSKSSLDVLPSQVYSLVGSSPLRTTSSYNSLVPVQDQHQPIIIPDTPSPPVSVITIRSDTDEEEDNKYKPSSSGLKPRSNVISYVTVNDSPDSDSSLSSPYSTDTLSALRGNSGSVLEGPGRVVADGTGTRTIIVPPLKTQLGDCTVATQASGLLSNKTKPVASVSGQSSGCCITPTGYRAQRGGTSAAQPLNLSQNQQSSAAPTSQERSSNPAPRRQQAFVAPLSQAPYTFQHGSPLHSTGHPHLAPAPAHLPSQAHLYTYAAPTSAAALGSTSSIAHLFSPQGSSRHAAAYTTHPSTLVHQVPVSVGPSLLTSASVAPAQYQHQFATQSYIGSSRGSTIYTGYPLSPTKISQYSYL
As to conditions: HIPK1; 1 uM; read-out: Percent Control (%). The method in brief: as §1

For test [11], the target named is T11, scanMAX Kinase assay panel (Homo sapiens, UniProt Q99755).
T11 construct: purchased DiscoverX
As to conditions: PIP5K1A; 1 uM; read-out: Percent Control (%). The method in brief:
as §1

The target in test [12] is T12, scanMAX Kinase assay panel (Homo sapiens, UniProt Q9BQI3).
T12 construct: purchased DiscoverX
T12 sequence (Q9BQI3 whole entry): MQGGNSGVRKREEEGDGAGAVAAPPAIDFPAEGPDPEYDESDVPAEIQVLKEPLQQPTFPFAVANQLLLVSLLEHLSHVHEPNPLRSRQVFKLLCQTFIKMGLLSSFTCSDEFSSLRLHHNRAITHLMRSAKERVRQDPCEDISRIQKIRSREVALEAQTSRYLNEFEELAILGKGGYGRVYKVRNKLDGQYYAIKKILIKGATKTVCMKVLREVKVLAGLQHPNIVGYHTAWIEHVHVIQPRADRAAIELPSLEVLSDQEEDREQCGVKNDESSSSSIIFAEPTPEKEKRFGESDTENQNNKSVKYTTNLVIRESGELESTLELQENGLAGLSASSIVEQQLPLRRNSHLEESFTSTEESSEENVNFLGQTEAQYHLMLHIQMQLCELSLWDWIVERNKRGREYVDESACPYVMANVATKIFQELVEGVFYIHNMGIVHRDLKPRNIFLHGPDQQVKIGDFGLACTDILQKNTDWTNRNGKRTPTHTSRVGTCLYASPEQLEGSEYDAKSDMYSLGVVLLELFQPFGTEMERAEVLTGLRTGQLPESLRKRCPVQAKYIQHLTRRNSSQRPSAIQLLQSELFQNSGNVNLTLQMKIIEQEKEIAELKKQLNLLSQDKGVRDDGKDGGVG
As to conditions: EIF2AK1; 1 uM; read-out: Percent Control (%). A digest of the protocol:
as §1

The target of test [13] is T13, scanMAX Kinase assay panel (Homo sapiens, UniProt Q9HC98).
T13 construct: purchased DiscoverX
As to conditions: NEK6; 1 uM; read-out: Percent Control (%). The method in brief:
as §1

Test [14] addresses T14, scanMAX Kinase assay panel (Homo sapiens, UniProt Q9Y2H9).
T14 construct: purchased DiscoverX
As to conditions: MAST1; 1 uM; read-out: Percent Control (%). A digest of the protocol: as §1

Test [15] addresses T15, scanMAX Kinase assay panel (Homo sapiens, UniProt Q9Y4K4).
T15 construct: purchased DiscoverX
As to conditions: MAP4K5; 1 uM; read-out: Percent Control (%). A digest of the protocol:
as §1

Where two headings read alike, the source gives them in different places.

T15 sequence (Q9Y4K4 whole entry): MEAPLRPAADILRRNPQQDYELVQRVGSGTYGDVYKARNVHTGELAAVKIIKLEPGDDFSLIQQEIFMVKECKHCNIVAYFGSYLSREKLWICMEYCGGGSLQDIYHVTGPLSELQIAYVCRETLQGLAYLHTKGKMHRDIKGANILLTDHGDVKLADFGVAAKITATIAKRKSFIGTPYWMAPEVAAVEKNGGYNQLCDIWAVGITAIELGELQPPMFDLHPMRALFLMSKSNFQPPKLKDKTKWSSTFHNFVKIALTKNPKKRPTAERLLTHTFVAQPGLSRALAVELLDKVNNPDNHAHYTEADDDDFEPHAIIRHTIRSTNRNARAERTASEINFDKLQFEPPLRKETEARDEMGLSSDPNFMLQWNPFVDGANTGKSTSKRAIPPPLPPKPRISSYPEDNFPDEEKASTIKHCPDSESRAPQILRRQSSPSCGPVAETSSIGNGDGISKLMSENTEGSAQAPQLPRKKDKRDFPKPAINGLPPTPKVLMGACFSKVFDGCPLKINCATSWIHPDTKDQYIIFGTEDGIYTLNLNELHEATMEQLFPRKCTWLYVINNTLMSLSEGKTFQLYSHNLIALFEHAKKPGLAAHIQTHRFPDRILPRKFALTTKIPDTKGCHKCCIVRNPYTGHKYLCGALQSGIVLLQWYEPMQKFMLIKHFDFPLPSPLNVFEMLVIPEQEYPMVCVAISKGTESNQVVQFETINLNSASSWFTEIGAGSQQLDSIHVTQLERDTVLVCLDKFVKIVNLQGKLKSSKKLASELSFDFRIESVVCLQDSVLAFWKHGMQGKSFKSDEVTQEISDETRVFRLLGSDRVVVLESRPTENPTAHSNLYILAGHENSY
T7 sequence (Q13131 whole entry): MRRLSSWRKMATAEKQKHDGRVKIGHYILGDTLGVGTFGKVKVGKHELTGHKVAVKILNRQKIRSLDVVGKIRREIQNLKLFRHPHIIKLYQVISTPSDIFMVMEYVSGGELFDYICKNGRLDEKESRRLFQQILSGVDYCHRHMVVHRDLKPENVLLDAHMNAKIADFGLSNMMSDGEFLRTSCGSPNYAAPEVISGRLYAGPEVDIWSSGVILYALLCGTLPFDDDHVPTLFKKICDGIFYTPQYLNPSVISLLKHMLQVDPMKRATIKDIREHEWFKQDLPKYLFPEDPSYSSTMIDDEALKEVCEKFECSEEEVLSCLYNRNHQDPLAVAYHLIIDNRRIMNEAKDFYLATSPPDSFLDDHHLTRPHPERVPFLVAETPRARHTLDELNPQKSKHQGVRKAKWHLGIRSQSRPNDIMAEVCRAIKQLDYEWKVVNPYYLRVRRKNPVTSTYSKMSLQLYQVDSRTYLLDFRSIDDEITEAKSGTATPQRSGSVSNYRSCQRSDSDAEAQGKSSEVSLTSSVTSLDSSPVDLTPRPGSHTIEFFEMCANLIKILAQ
T14 sequence (Q9Y2H9 whole entry): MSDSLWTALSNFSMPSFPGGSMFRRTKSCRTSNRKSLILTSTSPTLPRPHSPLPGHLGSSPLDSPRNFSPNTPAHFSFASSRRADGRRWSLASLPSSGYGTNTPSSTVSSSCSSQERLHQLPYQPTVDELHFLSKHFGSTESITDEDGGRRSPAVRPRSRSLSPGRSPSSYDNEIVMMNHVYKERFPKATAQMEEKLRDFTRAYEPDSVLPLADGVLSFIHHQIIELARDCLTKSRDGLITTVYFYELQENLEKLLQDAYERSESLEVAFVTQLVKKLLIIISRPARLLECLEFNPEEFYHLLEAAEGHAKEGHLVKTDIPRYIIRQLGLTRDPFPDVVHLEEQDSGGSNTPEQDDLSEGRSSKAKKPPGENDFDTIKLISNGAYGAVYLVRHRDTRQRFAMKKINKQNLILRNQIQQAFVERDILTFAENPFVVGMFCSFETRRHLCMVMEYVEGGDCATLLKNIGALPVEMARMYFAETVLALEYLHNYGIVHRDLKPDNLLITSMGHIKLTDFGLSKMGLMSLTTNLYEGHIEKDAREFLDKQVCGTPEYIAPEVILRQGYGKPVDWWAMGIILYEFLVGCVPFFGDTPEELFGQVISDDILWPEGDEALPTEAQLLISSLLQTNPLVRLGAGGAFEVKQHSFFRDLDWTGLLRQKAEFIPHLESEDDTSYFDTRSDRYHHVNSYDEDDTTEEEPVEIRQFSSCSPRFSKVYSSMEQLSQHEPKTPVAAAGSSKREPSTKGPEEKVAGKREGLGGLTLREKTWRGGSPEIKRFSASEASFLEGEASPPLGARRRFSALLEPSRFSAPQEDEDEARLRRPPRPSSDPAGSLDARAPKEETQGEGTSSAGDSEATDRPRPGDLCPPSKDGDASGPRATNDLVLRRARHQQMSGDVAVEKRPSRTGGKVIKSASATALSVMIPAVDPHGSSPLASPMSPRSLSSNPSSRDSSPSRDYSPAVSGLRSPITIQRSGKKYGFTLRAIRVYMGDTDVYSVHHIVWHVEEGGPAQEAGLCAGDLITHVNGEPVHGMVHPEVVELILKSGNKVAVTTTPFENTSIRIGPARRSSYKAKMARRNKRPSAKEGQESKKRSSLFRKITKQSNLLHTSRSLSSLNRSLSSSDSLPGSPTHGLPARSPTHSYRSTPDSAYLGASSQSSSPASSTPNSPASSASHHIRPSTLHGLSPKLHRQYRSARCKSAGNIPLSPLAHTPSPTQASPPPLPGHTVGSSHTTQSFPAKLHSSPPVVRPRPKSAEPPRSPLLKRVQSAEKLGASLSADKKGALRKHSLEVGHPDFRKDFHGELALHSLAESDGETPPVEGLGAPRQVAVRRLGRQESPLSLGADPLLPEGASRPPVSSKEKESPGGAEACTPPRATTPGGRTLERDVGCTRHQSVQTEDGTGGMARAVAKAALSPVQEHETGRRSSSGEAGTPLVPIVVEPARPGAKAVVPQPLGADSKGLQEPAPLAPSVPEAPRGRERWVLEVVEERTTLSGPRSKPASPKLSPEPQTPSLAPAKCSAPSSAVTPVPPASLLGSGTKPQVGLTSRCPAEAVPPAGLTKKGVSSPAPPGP

Consider `Cc1ccc(C(=O)Nc2ccc(CN3CCN(C)CC3)c(C(F)(F)F)c2)cc1C#Cc1cnc2c(Nc3cnn(C)c3)cccn12` [Example 1, 4-methyl-3-((8-((1-methyl-1H-pyrazol-4-yl)amino)imidazo[1,2-a]pyridin-3-yl)ethynyl)-N-(4-((4-methylpiperazin-1-yl)methyl)-3-(trifluoromethyl)phenyl)benzamide], for which the remaining binding at 1 µM is 100% in test [1]; 0% in test [2]; 1% in [3]; 17% in test [4] (JAK1 (JH1domain-catalytic)); 70% in test [4] (JAK1 (JH2domain-pseudokinase)); 100% in test [5]. Further, the remaining binding at 1 µM amounted to 80% in [6]; 7% in [7]; 54% in test [8]; 88% in test [9]; 51% in [10]; 94% in test [11]. In addition, the remaining binding at 1 µM in [12] came to 67%; in test [13], 65%; in [14], 81%; in [15], 1%.
As for `Cc1cn(-c2cc(NC(=O)c3ccc(C)c(C#Cc4cnc5c(Nc6cnn(C)c6)cccn45)c3)cc(C(F)(F)F)c2)cn1` [Example 12, 4-methyl-N-(3-(4-methyl-1H-imidazol-1-yl)-5-(trifluoromethyl)phenyl)-3-((8-((1-methyl-1H-pyrazol-4-yl)amino)imidazo[1,2-a]pyridin-3-yl)ethynyl)benzamide], the remaining binding at 1 µM came to 91% in test [1]; 1% in test [2]; 40% in test [3]; 78% in test [4] (JAK1 (JH1domain-catalytic)); 44% in test [4] (JAK1 (JH2domain-pseudokinase)); 81% in test [5]. Besides, the remaining binding at 1 µM in test [6] amounted to 100%; in test [7], 74%; in [8] it was 94%; in test [9], 90%; in [10], 71%; in [11], 84%. Moreover, the remaining binding at 1 µM in test [12] was determined as 95%; in test [13], 88%; in test [14] it was 56%; in [15] it was 12%.
For the compound `Cc1ccc(NC(=O)C2(C(=O)Nc3ccc(F)cc3)CC2)cc1C#Cc1cnc2c(Nc3cnn(C(C)C)c3)cccn12` [Example 78], the remaining binding at 1 µM in test [1] was 100%; in test [2], 0%; in test [3] it was 100%; in [4] (JAK1 (JH1domain-catalytic)), 92%; in [4] (JAK1 (JH2domain-pseudokinase)), 100%; in test [5] it was 98%. The remaining binding at 1 µM was 100% in test [6]; 100% in [7]; 100% in test [8]; 100% in test [9]; 91% in test [10]; 98% in test [11]. Besides, the remaining binding at 1 µM stood at 94% in test [12], 100% in test [13], 82% in [14] and 82% in test [15].
